From patent publication US10517889B2, “Modulators of SMAD7 expression” (Ionis Pharmaceuticals, Inc., priority 2017, dated 2019)
Strand notation (5' to 3'): a small letter for the sugar, then the base; units joined by * are phosphorothioate-linked, units joined directly phosphodiester-linked; [ ] holds rarer units or linkages, { } end groups; capitals alone tell only the bases. e = 2'-O-(2-methoxyethyl) (MOE); [5mC] = 5-methylcytosine; d = 2'-deoxy (DNA)

Test system: human SMAD7 mRNA
Test: Antisense inhibition of human SMAD7 mRNA expression in Hep3B cells by 5-10-5 MOE gapmers, single concentration, electroporation, RT-PCR (Example 1, Study 1 and 2)
Type: cell-based
Conditions: for % Inhibition: Study 2, electroporation with 15,000 nM antisense oligonucleotide; for % Inhibition of SMAD7 mRNA: electroporation with 15,000 nM antisense oligonucleotide (Study 2)
Outline: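 Readout is percent SMAD7 mRNA inhibition versus untreated cells, measured by qRT-PCR (RTS5062) and corrected for total RNA by RIBOGREEN. Oligonucleotide, 5,000 nM or 15,000 nM, was delivered by electroporation into Hep3B cells at 20,000 per well. RNA was collected about 24 h later.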

[1] = electroporation, 15,000 nM antisense oligonucleotide (Study 2), 5-10-5 MOE gapmers targeting SEQ ID NO: 1 and 2
[2] = 5-10-5 MOE gapmers targeting SEQ ID NO: 1 and 2
[3] = electroporation, 5,000 nM, approximately 24 hours, relative to untreated control cells, gapmers targeting SEQ ID NO: 1 and 2
[4] = electroporation, 15,000 nM, approximately 24 hours, relative to untreated control cells, gapmers targeting SEQ ID NO: 1 and 2

With “771834 (antisense eA*eA*e[5mC]*eA*eT*dA*dA*dA*dG*dT*dT*d[5mC]*dT*d[5mC]*dA*eA*eA*e[5mC]*eA*eG) [compound 771834]” the “% inhibition of SMAD7 mRNA expression” value [1] was 25%.
With “771835 (antisense eA*eG*eT*eA*eA*dA*dA*dT*dG*dG*dG*dA*dA*dA*dT*eA*eA*eG*eG*e[5mC]) [compound 771835]” the “% Inhibition” value [2] was 5% and the “% inhibition of SMAD7 mRNA expression” value [3] was 17%.
With “771837 (antisense eA*eG*eT*eG*eT*dT*dG*dA*dG*dG*dA*d[5mC]*dT*d[5mC]*d[5mC]*e[5mC]*e[5mC]*eA*eG*e[5mC]) [compound 771837]” the “% inhibition of SMAD7 mRNA expression” value [4] was 48%.
With “771839 (antisense e[5mC]*eA*e[5mC]*eA*eG*d[5mC]*dA*d[5mC]*d[5mC]*dG*dT*dT*dA*d[5mC]*dT*eG*eG*eA*e[5mC]*eA) [compound 771839]” the “% Inhibition” value [2] was 21%.
With “771840 (antisense eA*eG*eA*eT*eG*d[5mC]*dT*dT*d[5mC]*dT*dA*dG*dG*dT*dG*eA*eA*e[5mC]*e[5mC]*eA) [compound 771840]” the “% Inhibition of SMAD7 mRNA” value [2] was 30% and the “% inhibition of SMAD7 mRNA expression” value [1] was 16%.
For “771841 (antisense eT*eT*eT*eA*eG*dA*dA*dA*d[5mC]*d[5mC]*d[5mC]*dA*dG*dA*dG*eA*e[5mC]*eA*eA*eA) [compound 771841]”, the “% inhibition of SMAD7 mRNA expression” value [1] was 36%.
“771842 (antisense eT*eT*eG*eT*eG*dT*dT*dA*dT*dG*dA*dA*dA*dA*d[5mC]*eA*eA*eA*eA*e[5mC]) [compound 771842]” was tested, and the “% inhibition of SMAD7 mRNA expression” value [1] was 6%.
“771843 (antisense e[5mC]*eG*e[5mC]*e[5mC]*eG*dG*d[5mC]*d[5mC]*d[5mC]*dA*d[5mC]*d[5mC]*dA*dA*d[5mC]*e[5mC]*eT*e[5mC]*eT*eG) [compound 771843]” was tested, and the “% Inhibition” value [2] was 17% and the “% inhibition of SMAD7 mRNA expression” value [3] was 19%.
In the case of “771844 (antisense eG*eA*eA*eG*eG*dA*d[5mC]*d[5mC]*dA*dA*dG*dT*d[5mC]*d[5mC]*d[5mC]*eT*e[5mC]*eT*e[5mC]*e[5mC]) [compound 771844]”, the “% Inhibition” value [2] is reported as 0%.
“771845 (antisense eT*eT*e[5mC]*e[5mC]*eA*dA*dG*d[5mC]*dA*d[5mC]*dG*dG*dA*dG*dT*e[5mC]*eA*eG*e[5mC]*e[5mC]) [compound 771845]” was tested, and the “% inhibition of SMAD7 mRNA expression” value [4] was 39%.
For “771846 (antisense e[5mC]*eA*eT*eA*eT*dT*dT*dG*d[5mC]*dT*d[5mC]*d[5mC]*dA*dT*dA*eA*eA*e[5mC]*eA*eA) [compound 771846]”, the “% Inhibition” value [2] was 5%.
With “771847 (antisense e[5mC]*eA*eT*e[5mC]*eA*d[5mC]*d[5mC]*dT*dT*d[5mC]*dG*dG*dA*d[5mC]*dA*eA*eG*e[5mC]*e[5mC]*eA) [compound 771847]” the “% Inhibition” value [2] was 53%.
“771848 (antisense e[5mC]*e[5mC]*eA*e[5mC]*eA*d[5mC]*dA*dA*d[5mC]*d[5mC]*dA*dA*dA*dG*d[5mC]*eA*eG*eA*eA*eG) [compound 771848]” was tested, and the “% Inhibition of SMAD7 mRNA” value [2] was 47% and the “% inhibition of SMAD7 mRNA expression” value [1] was 36%.
In the case of “771851 (antisense eG*e[5mC]*eT*eT*eT*dG*dA*dA*dA*dA*d[5mC]*dA*dT*d[5mC]*d[5mC]*e[5mC]*eA*e[5mC]*eT*eT) [compound 771851]”, the “% Inhibition” value [2] is reported as 43% and the “% inhibition of SMAD7 mRNA expression” value [3] is reported as 25%.
With “771852 (antisense eA*eG*eA*eT*eT*dT*dA*dA*dA*dA*dT*dT*dA*dA*dA*eA*eA*eG*e[5mC]*eA) [compound 771852]” the “% Inhibition” value [2] was 0%.
With “771853 (antisense eA*eG*e[5mC]*eT*eT*dG*dG*dA*dA*dG*d[5mC]*d[5mC]*dA*dT*d[5mC]*eG*eG*eT*eT*eG) [compound 771853]” the “% inhibition of SMAD7 mRNA expression” value [4] was 36%.
For “771854 (antisense eT*e[5mC]*e[5mC]*e[5mC]*e[5mC]*dG*d[5mC]*d[5mC]*dT*dT*dT*dT*d[5mC]*dT*dT*e[5mC]*e[5mC]*eT*eG*eG) [compound 771854]”, the “% Inhibition” value [2] was 9%.
“771855 (antisense eT*e[5mC]*e[5mC]*e[5mC]*eG*dA*d[5mC]*dT*dT*dT*dG*d[5mC]*dA*dA*dG*eA*eT*eG*eA*eA) [compound 771855]” was tested, and the “% Inhibition” value [2] was 38%.
“771856 (antisense e[5mC]*eT*eG*eA*eA*dA*dG*dA*dA*dA*dG*dT*d[5mC]*d[5mC]*d[5mC]*eG*eA*e[5mC]*eT*eT) [compound 771856]” was tested, and the “% Inhibition of SMAD7 mRNA” value [2] was 35% and the “% inhibition of SMAD7 mRNA expression” value [1] was 34%.
With “771857 (antisense e[5mC]*eG*eT*e[5mC]*eT*dT*dA*dT*dT*dG*dT*dT*dT*dT*dT*eG*eT*eT*e[5mC]*e[5mC]) [compound 771857]” the “% inhibition of SMAD7 mRNA expression” value [1] was 29%.
With “771858 (antisense e[5mC]*eT*eG*e[5mC]*e[5mC]*dA*dA*d[5mC]*dG*dG*d[5mC]*dA*d[5mC]*dA*dG*eT*e[5mC]*eA*eT*eA) [compound 771858]” the “% inhibition of SMAD7 mRNA expression” value [1] was 31%.
In the case of “771859 (antisense e[5mC]*e[5mC]*eA*eG*eA*dA*dA*dA*dT*dG*d[5mC]*dA*dG*dA*d[5mC]*eA*eG*e[5mC]*eT*eA) [compound 771859]”, the “% Inhibition” value [2] is reported as 42% and the “% inhibition of SMAD7 mRNA expression” value [3] is reported as 43%.
For “771860 (antisense e[5mC]*eT*eG*eG*e[5mC]*dT*d[5mC]*dA*dG*dA*dG*dG*d[5mC]*dT*dG*e[5mC]*eA*eG*eT*eG) [compound 771860]”, the “% Inhibition” value [2] was 20%.
With “771861 (antisense eA*eG*eA*eA*eA*dA*d[5mC]*dA*dG*d[5mC]*d[5mC]*d[5mC]*d[5mC]*d[5mC]*d[5mC]*e[5mC]*eA*eG*e[5mC]*eA) [compound 771861]” the “% inhibition of SMAD7 mRNA expression” value [4] was 13%.
With “771862 (antisense eT*e[5mC]*eT*eT*e[5mC]*d[5mC]*d[5mC]*d[5mC]*dA*dG*dA*dA*dA*dA*d[5mC]*eA*eG*e[5mC]*e[5mC]*e[5mC]) [compound 771862]” the “% Inhibition” value [2] was 10%.
“771863 (antisense e[5mC]*e[5mC]*eA*eG*e[5mC]*d[5mC]*d[5mC]*d[5mC]*d[5mC]*dT*d[5mC]*d[5mC]*dT*dG*dG*eG*eA*e[5mC]*eT*eA) [compound 771863]” was tested, and the “% Inhibition” value [2] was 9%.
With “771864 (antisense eA*eG*eA*e[5mC]*eA*dA*dA*dG*dA*dT*d[5mC]*dA*d[5mC]*dA*dG*eA*eT*e[5mC]*eA*e[5mC]) [compound 771864]” the “% Inhibition of SMAD7 mRNA” value [2] was 27% and the “% inhibition of SMAD7 mRNA expression” value [1] was 0%.
In the case of “771865 (antisense eA*eT*eA*eG*eG*dG*dA*dT*dA*dT*d[5mC]*dT*d[5mC]*dA*dT*e[5mC]*eA*eA*eT*eA) [compound 771865]”, the “% inhibition of SMAD7 mRNA expression” value [1] is reported as 38%.
For “771866 (antisense eG*e[5mC]*eA*eT*eT*dT*dT*dT*d[5mC]*dT*dG*dA*dA*d[5mC]*dA*eG*eA*eG*eT*e[5mC]) [compound 771866]”, the “% inhibition of SMAD7 mRNA expression” value [1] was 34%.
With “771867 (antisense eA*e[5mC]*eT*eG*eG*dG*d[5mC]*dT*dT*d[5mC]*dA*dG*d[5mC]*dA*dA*eA*eG*eA*eT*eA) [compound 771867]” the “% Inhibition” value [2] was 19% and the “% inhibition of SMAD7 mRNA expression” value [3] was 39%.
